# Test results published in the supplement of paper PMC10307832.
# Assays:
# Test in all cases: relative viability (nuclei count vs DMSO), 5 days (fraction); higher = more cells survive
# [1] = compound: CC1CC(=O)N(C2=CN=C(N=C2N1C3CCCC3)NC4=C(C=C(C=C4)C(=O)NC5CCN(CC5)C)OC)C [NPK76-II-72-1] + CS(=O)(=O)CCNCc1ccc(-c2ccc3ncnc(Nc4ccc(OCc5cccc(F)c5)c(Cl)c4)c3c2)o1 [Lapatinib] (partner 2 µM)
# How it was run: (§1)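 Nuclei were stained with Hoechst during a one-step fixation (final 0.05% Triton X-100, 1% formaldehyde, 1 ug/ml Hoechst) carried out 5 days after dosing, then counted on 4× images. The cells, lung cancer lines in 1536-well plates, had been dosed by pin tool the day after seeding with one drug alone or a fixed anchor-drug dose plus five library-drug doses (not always all listed) in √10 steps. Relative viability is the nuclei count in treated wells divided by that in vehicle wells, and each value is the median of duplicate plates.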
# [2] = compound: CC1CC(=O)N(C2=CN=C(N=C2N1C3CCCC3)NC4=C(C=C(C=C4)C(=O)NC5CCN(CC5)C)OC)C [NPK76-II-72-1] + CC(=O)Nc1cccc(-n2c(=O)n(C3CC3)c(=O)c3c(Nc4ccc(I)cc4F)n(C)c(=O)c(C)c32)c1 [Trametinib] (partner 0.02 µM)
# How it was run: as §1
# [3] = compound: CC[C@@H]1C(=O)N(C)c2cnc(Nc3ccc(C(=O)NC4CCN(C)CC4)cc3OC)nc2N1C1CCCC1 [BI-2536] + CC(=O)Nc1cccc(-n2c(=O)n(C3CC3)c(=O)c3c(Nc4ccc(I)cc4F)n(C)c(=O)c(C)c32)c1 [Trametinib] (partner 0.02 µM)
# How it was run: as §1
# [4] = compound: CC1CC(=O)N(C2=CN=C(N=C2N1C3CCCC3)NC4=C(C=C(C=C4)C(=O)NC5CCN(CC5)C)OC)C [NPK76-II-72-1] + CS(=O)(=O)N1CCN(Cc2cc3nc(-c4cccc5[nH]ncc45)nc(N4CCOCC4)c3s2)CC1 [Pictilisib] (partner 1 µM)
# How it was run: as §1
cell line,measurement,setting,value
UMC-11,relative viability,[1]; first compound 0.01 µM,0.923
same,relative viability,[1]; first compound 0.03162 µM,1.07
same,relative viability,[1]; first compound 0.1 µM,1.08
same,relative viability,[1]; first compound 0.3162 µM,0.782
same,relative viability,[1]; first compound 1 µM,1.05
same,relative viability,[2]; first compound 0.01 µM,0.692
same,relative viability,[2]; first compound 0.03162 µM,0.629
same,relative viability,[2]; first compound 0.1 µM,0.75
same,relative viability,[2]; first compound 0.3162 µM,0.484
same,relative viability,[2]; first compound 1 µM,0.812
same,relative viability,[3]; first compound 0.01 µM,0.489
same,relative viability,[3]; first compound 0.03162 µM,0.637
same,relative viability,[3]; first compound 0.1 µM,0.173
same,relative viability,[3]; first compound 0.3162 µM,0.175
same,relative viability,[3]; first compound 1 µM,0.521
same,relative viability,[4]; first compound 0.01 µM,0.75
same,relative viability,[4]; first compound 0.03162 µM,0.707
same,relative viability,[4]; first compound 0.1 µM,0.881
same,relative viability,[4]; first compound 0.3162 µM,0.806
same,relative viability,[4]; first compound 1 µM,0.778
